In patent US8487117B2, “Atropisomers of (hydroxyalkyl) pyrrole derivatives” (Exelixis, Inc., priority 2008, dated 2013):

Tests used:
[1] = target: T1, human mineralocorticoid receptor (hMR), GAL4-hMR receptor (Homo sapiens, UniProt P08235); assay: GAL4-hMR-LBD luciferase reporter assay in HEK293 cells with 1 nM aldosterone (mineralocorticoid receptor antagonistic action); assay type: cell-based; details: for IC50: concentration which shows Imax/2, HEK293, GAL4-hMR-LBD, luciferase, with 1 nM aldosterone, read-out: ICmax50; for Imax: maximum value, DMSO control = 0%, 1 nM aldosterone control = 100%, HEK293 luciferase reporter
T1 construct: expressed in transfected cells; host or cells: HEK293
T1 sequence (P08235 726-964 limits assumed): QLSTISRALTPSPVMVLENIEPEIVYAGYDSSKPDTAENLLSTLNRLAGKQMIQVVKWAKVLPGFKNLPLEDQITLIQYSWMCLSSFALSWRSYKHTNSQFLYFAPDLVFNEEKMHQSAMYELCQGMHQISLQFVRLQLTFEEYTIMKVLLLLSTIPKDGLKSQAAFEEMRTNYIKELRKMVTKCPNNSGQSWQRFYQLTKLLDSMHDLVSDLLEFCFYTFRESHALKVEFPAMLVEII
Experimental: A plasmid pM-hMR-LBD expressing GAL4-hMR receptor, which has a ligand binding domain (LBD, corresponds to approximately 308 amino acids at the carboxy terminus) of human mineralocorticoid receptor (hMR, NM_000901) bonded to a DNA binding domain of yeast transcription factor GAL4 (corresponding to 147 amino acids at the amino terminus), was prepared. Reporter assay was conducted by using a reporter plasmid (such as STRATAGENE CLONING SYSTEMS, pFR-Luc) including a luciferase gene, having a sequence (UAS sequence) which binds to the DNA binding domain of GAL4.
The plasmid pM-hMR-LBD and the reporter plasmid as obtained above were gene transferred into renal cell line HEK293 of human fetus by lipofection. On the next day, cells were collected by trypsin treatment, and were dispensed with DMEM culture medium containing 5% of FBS treated by activated charcoal, to a white 96-well plate (Costar) with the amount of 95 microliter per well.
The Test Compounds were used by dissolving them in dimethyl sulfoxide at a predetermined concentration, and the test compounds suitably diluted with culture media were added to the cells on the white 96-well plate so that the final concentration becomes 0.1%. When adding the Test Compounds, they were accompanied with 1 nM aldosterone. The well group of Control group 1 was added with dimethyl sulfoxide, and the well group of Control group 2 was added with 1 nM aldosterone. After addition, cultivation was carried out overnight.
On the next day, the culture media was removed, and then luciferase substrate (Wako Pure Chemical Industries, Ltd.) was prepared in accordance with the attached document and were added to each well by 50 microliters. Stirring was conducted for approximately 30 minutes, and the amount of luminescence was measured for each well by using Analyst (Molecular Devices), to obtain luciferase activity. A graph which plots relative luciferase activity values, when the luciferase activity value of Control group 1 was taken as 0% and the luciferase activity value of Control group 2 was taken as 100%, for each of the amount of the test compound addition group was made.

[2] = Plasma concentration after intragastric administration to cynomolgus monkey (LC-MS/MS); assay type: in vivo; details: male cynomolgus monkey, fasted, 3 mg/kg intragastric in 0.5% MC; for AUC: Area under the plasma concentration versus time curve: blood up to 48 h, noncompartment model; for Cmax: po, plasma, read-out: Cmax: Maximum concentration
Experimental: Cynomolgus monkey (male) was used, and was fasted from the day before the administration of the Test Compound.
Administration samples were prepared by adding 0.5% MC (methyl cellulose) solution to the Test Compound, so that the dose becomes 3 mg/2 mL/kg. Each of the administration samples was administered intragastrically to the cynomolgus monkey by using a tube. After the samples were administered, approximately 5 mL of 0.5% MC was administered. For each of the administration samples, a group of two cynomolgus monkeys was administered.
With respect to collection of blood, it was conducted by collecting approximately 0.5 mL of blood from femoral vein using a glass syringe treated with heparin, before administration, and 30 minutes, 1, 2, 4, 6, 8, 24 and 48 hours after administration. Blood was centrifuged (1,700×g, 15 min, 4° C.) to obtain plasma. Plasma was stored in a freezer (−20° C.) until pretreatment.
Preparation of standard solution and internal standard (“IS”) solution: Each of the Test Compounds was dissolved in DMSO (dimethyl sulfoxide) to prepare a solution of 10 mM each. Each of the compound solution was diluted with acetonitrile, and thus standard solution was prepared. Further, niflumic acid (Wako Pure Chemical Industries, Ltd.) was dissolved in DMSO at the concentration of 2 mM, followed by dilution with acetonitrile to prepare an IS solution of 2 μM.
Pretreatment of plasma samples: 20 μL of plasma sample was collected, and then 25 μL of purified water, 100 μL of acetonitrile, and 100 μL of methanol was added. For the preparation of a calibration curve, 25 μL of purified water, 20 μL of each of the standard solutions (acetonitrile solution), 80 μL of acetonitrile, and 100 μL of methanol were added to 20 μL of blank plasma. 40 μL of the acetonitrile solution of IS was added to all of the samples, and then the samples were stirred, filtered by suction using Captiva filter plate (Varian, Inc.), and then the filtrate was used as the sample for LC-MS/MS analysis.
Quantitative Determination of Test Compound: Concentration in plasma was analyzed by LC-MS/MS method for each Test Compound.
[HPLC Analysis Conditions]
• HPLC: WATERS 2795 (Waters Corporation); • Column: CAPCELL PAK C8, 2.0 mm I.D.×50 mm, 5 μm (Shiseido Co., Ltd.) • Mobile Phase: A=5 mM ammonium acetate aqueous solution, B=acetonitrile [MS/MS Analysis Conditions] • MS: Quattro micro API (Waters Corporation) • Ionization Method: Electrospray Ionization (“ESI”) • Ionization Mode: Positive • Detection Mode: MRM • Analysis: Pharmacokinetic parameter was calculated from concentration of each of the drugs in plasma, by using WinNonlin Professional (Ver. 4.0.1, Pharsight Corporation). Here, noncompartment model was used as the model for parameter calculation. (Results)

| Compound | IC50 [1] | Imax [1] | AUC: Area under the plasma concentration versus time curve [2] | Cmax [2] |
| --- | --- | --- | --- | --- |
| Cc1c(C(=O)Nc2ccc(S(C)(=O)=O)cc2)cn([C@H](C)[C@H](C)O)c1-c1ccc(Cl)cc1C(F)(F)F (atropisomer, axis not shown) [Example 3, 5-[4-Chloro-2-(trifluoromethyl)phenyl]-1-[(1R,2S)-2-hydroxy-1-methylpropyl]-4-methyl-N-[4-(methylsulfonyl)phenyl]-1H-pyrrole-3-carboxamide] | 6.7 nM | 95% |  |  |
| Cc1c(C(=O)Nc2ccc(S(C)(=O)=O)cc2)cn([C@H](C)[C@H](C)O)c1-c1ccccc1C(F)(F)F (single isomer, unassigned) [Example 1-isomer A] | 2.9 nM | 117% |  |  |
| Cc1c(C(=O)Nc2ccc(S(C)(=O)=O)cc2)cn([C@H](C)[C@H](C)O)c1-c1ccc(F)cc1C(F)(F)F (single isomer, unassigned) [Example 2-isomer A] | 3.8 nM | 103% | 30320 ng·h/mL | 1280 ng/mL |
| Cc1c(C(=O)Nc2ccc(S(C)(=O)=O)cc2)cn([C@H](C)[C@H](C)O)c1-c1ccccc1C(F)(F)F [Example 1, 1-[(1R,2S)-2-Hydroxy-1-methylpropyl]-4-methyl-N-[4-(methylsulfonyl)phenyl]-5-[2-(trifluoromethyl)phenyl]-1H-pyrrole-3-carboxamide] | 6.6 nM | 115% |  |  |
| Cc1c(C(=O)Nc2ccc(S(C)(=O)=O)cc2)cn([C@H](C)[C@H](C)O)c1-c1ccc(F)cc1C(F)(F)F [Example 2, 5-[4-Fluoro-2-(trifluoromethyl)phenyl]-1-[(1R,2S)-2-hydroxy-1-methylpropyl]-4-methyl-N-[4-(methylsulfonyl)phenyl]-1H-pyrrole-3-carboxamide] | 6.2 nM | 88% |  |  |
| Cc1c(C(=O)Nc2ccc(S(C)(=O)=O)cc2)cn([C@H](C)[C@H](C)O)c1-c1ccccc1C(F)(F)F (single isomer, unassigned) [Example 1-isomer B] | > 1000 nM |  |  |  |
| Cc1c(C(=O)Nc2ccc(S(C)(=O)=O)cc2)cn([C@H](C)[C@H](C)O)c1-c1ccc(F)cc1C(F)(F)F (single isomer, unassigned) [Example 2-isomer B] | > 1000 nM |  |  |  |
| Cc1c(C(=O)Nc2ccc(S(C)(=O)=O)cc2)cn(CCO)c1-c1ccccc1C(F)(F)F (racemic) [Comparative compound, 1-(2-hydroxyethyl)-4-methyl-N-[4-(methylsulfonyl)phenyl]-5-[2-(trifluoromethyl)phenyl]-1H-pyrrole-3-carboxamide, reference compound] | 5.3 nM | 105% | 4090 ng·h/mL | 230 ng/mL |

More lines, now with the values ahead:

| IC50 [1] | Imax [1] | AUC: Area under the plasma concentration versus time curve [2] | Cmax [2] | Compound |
| --- | --- | --- | --- | --- |
| 4.6 nM | 108% | 42490 ng·h/mL | 1440 ng/mL | Cc1c(C(=O)Nc2ccc(S(C)(=O)=O)cc2)cn([C@H](C)[C@H](C)O)c1-c1ccc(Cl)cc1C(F)(F)F (single isomer, unassigned) [Example 3-isomer A] |
| 10 nM | 106% |  |  | Cc1c(C(=O)Nc2ccc(S(C)(=O)=O)cc2)cn([C@H](C)[C@H](C)O)c1-c1ccc(F)cc1Cl [Example 4, 5-(2-Chloro-4-fluorophenyl)-1-[(1R,2S)-2-hydroxy-1-methylpropyl]-4-methyl-N-[4-(methylsulfonyl)phenyl]-1H-pyrrole-3-carboxamide] |
| 11 nM | 103% |  |  | Cc1c(C(=O)Nc2ccc(S(C)(=O)=O)cc2)cn([C@H](C)[C@H](C)O)c1-c1ccc(F)cc1Cl (single isomer, unassigned) [Example 4-isomer A] |
| > 1000 nM |  |  |  | Cc1c(C(=O)Nc2ccc(S(C)(=O)=O)cc2)cn([C@H](C)[C@H](C)O)c1-c1ccc(Cl)cc1C(F)(F)F (single isomer, unassigned) [Example 3-isomer B] |
| > 1000 nM |  |  |  | Cc1c(C(=O)Nc2ccc(S(C)(=O)=O)cc2)cn([C@H](C)[C@H](C)O)c1-c1ccc(F)cc1Cl (single isomer, unassigned) [Example 4-isomer B] |
